From paper PMC10301432, “Antiplasmodial, Trypanocidal, and Genotoxicity In Vitro Assessment of New Hybrid α,α-Difluorophenylacetamide-statin Derivatives” (Pharmaceuticals, 2023)
Entries after “also recorded” stand apart in the source; their conditions may differ. Where two headings read alike, the source gives them in different places.

Assays:
[1] = in vitro; type: cell-based; settings: human
Summary of the method: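 Cells grown in MEM with 10% FBS at 37 °C, 5% CO2, and seeded at 1 × 10^4/well. After treatment, viability read by WST-1 over 3 h incubation, absorbance at 440 nm.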

[2] = system: intracellular forms of T. cruzi (Tulahuen strain transfected with β-galactosidase); assay: Activity against intracellular T. cruzi in L929 cells; type: cell-based, Trypanosoma cruzi
[3] = in vitro; type: cell-based; settings: mouse
[4] = system: Salmonella enterica serovar Typhimurium TA97; assay: Salmonella/microsome assay, TA97; settings: for mutagenicity to TA97: at concentrations above 300 µM
Protocol: Salmonella enterica serovar Typhimurium (S. typhimurium) strains TA97, TA98, TA100, TA104 and TA102 from the authors’ stock were used as described in the mutagenicity assay.
To determine the cytotoxic effects, after 30 min pre-incubation, the assay mixtures were diluted in 0.9% NaCl (w/v) to obtain a suspension containing 2 × 10^2 cells/mL. […] The plates were then incubated at 37 °C for 24 h and the colonies counted. All the experiments were conducted in triplicate and were repeated at least twice. Statistical differences between the groups were analyzed by a two-way ANOVA (p < 0.05) and Tukey’s post hoc test.

[5] = system: CHO-K1 cells; type: cell-based, Chinese Hamster
Protocol: Fresh HepG2 and CHO-K1 cells were seeded at the density of 1 × 10^5 cells/mL into 24-well plates (1 mL/per well). The compounds 13 (a–d) were then added to the medium to final concentrations of 500, 1000 and 2000 µM and incubation continued for 3 h or 24 h. DMSO 10% was used as the negative control, and, BaP (80 µM) for HepG2 and MMC (5 µM) for CHO-K1 were the positive controls. After exposure to the compounds, the cells were incubated for more than 24 h under growth conditions before quantification of the micronuclei and cytotoxicity. The cytogenetic studies were carried out in triplicate as described previously (see [51]). In order to determine the mitotic index and the number of cells with micronuclei, the medium was replaced by a cold methanol-glacial acetic acid (3:1) fixative for 30 min, and the cells then rinsed with distilled water for 2 min and air dried. The fixed cells were stained with 4,6-diamidino-2-phenylindole (DAPI) ([…]) dissolved in McIlvaine buffer (0.1 M citric acid plus 0.2 M Na2HPO4, pH 7.0) for 60 min, washed with McIlvaine buffer for 5 min, briefly rinsed with distilled water and mounted in glycerol. To determine the mitotic index and the number of cells with micronuclei, 1000 cells per well (3000 cells per concentration) were analyzed under a fluorescence microscope. The results for micronuclei were presented as the percentage of cells containing micronuclei in the 3000 cells/concentration group analyzed. Cells that glowed brightly and had homogenous nuclei were considered as having normal phenotypic morphology. Apoptotic nuclei were identified by the condensed chromatin at the periphery of the nuclear membrane or by fragmented nuclear body morphology. Necrotic cells presented chromatin forms with irregularly shaped aggregates, a pyknotic nucleus (shrunken and darkly stained) and cell membrane disruption, with cellular debris spilled into the extracellular milieu. Once again, 3000 cells were counted and the percentage of viable cells was evaluated, discounting apoptotic and necrotic cells. Statistical differences between the groups were analyzed by two-way ANOVA (p < 0.01) and Tukey’s post hoc test.

[6] = system: Salmonella enterica serovar Typhimurium TA102
[7] = in vitro; settings: Salmonella enterica serovar Typhimurium, pH 7.4
[8] = system: Salmonella enterica serovar Typhimurium TA100; assay: Salmonella/microsome assay, TA100

Structure (SMILES): CC(=O)Nc1ccc(Br)cc1C(F)(F)C(=O)NCC[C@@H]1C[C@H](CC(=O)OC(C)(C)C)OC(C)(C)O1 [Compound 13d, tert-Butyl 2-((4R,6R)-6-(2-(2-(2-acetamido-5-bromophenyl)-2,2-difluoroacetamido)ethyl)-2,2-dimethyl-1,3-dioxan-4-yl)acetate]
- CC50 at 24 h [1]: > 1000 µM
- SI ([2]; LC50 (L929)/EC50 (intracellular forms)): 10
- EC50 ([2]; Trypanosoma cruzi, TULAHUEN, L929, 96 h, intracellular forms, Tulahuen strain, 96 h): 11.4 ± 3.29 µM
- CC50 at 96 h [3]: 114 ± 5.29 µM
- revertant His+ colonies TA97 ([4]; +S9, 3 µM): 134 ± 3
- revertant His+ colonies TA97 ([4]; +S9, 15 µM): 135 ± 1
- revertant His+ colonies TA97 ([4]; +S9, 30 µM): 201 ± 4
- revertant His+ colonies TA97 ([4]; +S9, 150 µM): 203 ± 1
- revertant His+ colonies TA97 ([4]; +S9, 300 µM): 288 ± 6
- revertant His+ colonies TA97 ([4]; +S9, 1500 µM): 410 ± 10
- mutagenicity to TA97 ([4]; +S9): significant mutagenicity; also recorded: mutagenic
- revertant His+ colonies TA97 ([4]; −S9, 3 µM): 119 ± 8
- revertant His+ colonies TA97 ([4]; −S9, 15 µM): 137 ± 1
- revertant His+ colonies TA97 ([4]; −S9, 30 µM): 135 ± 4
- revertant His+ colonies TA97 ([4]; −S9, 150 µM): 134 ± 4
- revertant His+ colonies TA97 ([4]; −S9, 300 µM): 146 ± 6
- revertant His+ colonies TA97 ([4]; −S9, 1500 µM): Cytotoxic
- mutagenicity to TA97 ([4]; −S9): significant mutagenicity; also recorded: mutagenic
- micronuclei formation (genotoxicity) [5]: induced genotoxicity
- revertant His+ colonies TA102 ([6]; +S9, 3 µM): 153 ± 13
- revertant His+ colonies TA102 ([6]; +S9, 15 µM): 155 ± 20
- revertant His+ colonies TA102 ([6]; +S9, 30 µM): 160 ± 11
- revertant His+ colonies TA102 ([6]; +S9, 150 µM): 162 ± 31
- revertant His+ colonies TA102 ([6]; +S9, 300 µM): 176 ± 11
- revertant His+ colonies TA102 ([6]; +S9, 1500 µM): Cytotoxic
- revertant His+ colonies TA102 ([6]; −S9, 3 µM): 356 ± 7
- revertant His+ colonies TA102 ([6]; −S9, 15 µM): Cytotoxic
- CC50 [7]: 14.7 ± 1.8 µM
- revertant His+ colonies TA100 ([8]; +S9, 3 µM): 156 ± 18
- revertant His+ colonies TA100 ([8]; +S9, 15 µM): 166 ± 11
- revertant His+ colonies TA100 ([8]; +S9, 30 µM): 173 ± 1
- revertant His+ colonies TA100 ([8]; +S9, 150 µM): 174 ± 21
- revertant His+ colonies TA100 ([8]; +S9, 300 µM): 181 ± 15
- revertant His+ colonies TA100 ([8]; +S9, 1500 µM): Cytotoxic
- revertant His+ colonies TA100 ([8]; −S9, 3 µM): 99 ± 4
- revertant His+ colonies TA100 ([8]; −S9, 15 µM): 96 ± 12
- revertant His+ colonies TA100 ([8]; −S9, 30 µM): 93 ± 1
- revertant His+ colonies TA100 ([8]; −S9, 150 µM): Cytotoxic
